Activity calls are given as the source filed them. No cut-off for these calls is given here.
Key:
[1] = Half life in human liver microsomes; format: ADME, Microsome
COLO 205 = assay: Cytotoxicity against human COLO205 cells after 72 hrs by MTS assay; conditions: COLO 205, 72 h
A-375 = assay: Cytotoxicity against human A375 cells after 72 hrs by MTS assay; conditions: A-375, 72 h
[2] = Half life in rat liver microsomes; format: ADME, Microsome
[3] = molecular target: Dual specificity mitogen-activated protein kinase kinase 1 (Homo sapiens, UniProt Q02750)
Description: Inhibition of MEK1 by IMAP assay

[4] = Mean residence time in monkey at 2 mg/kg, po; format: ADME, organism-based, Macaca mulatta; design: dose 2 mg/kg, route oral; conditions: rhesus monkey, in vivo
[5] = Volume of distribution at steady state in dog at 0.6 mg/kg, iv and 2.3 mg/kg, po; format: ADME, organism-based, Canis lupus familiaris; conditions: in vivo, read-out: Vdss
[6] = Mean residence time in rat at 1 mg/kg, iv; format: ADME, organism-based; design: dose 1 mg/kg, route intravenous; conditions: in vivo
[7] = molecular target: Hepatocyte growth factor receptor (Homo sapiens) (UniProt P08581); assay: Inhibition of c-Met up to 10 uM
[8] = molecular target: RAF proto-oncogene serine/threonine-protein kinase (Homo sapiens) (UniProt P04049); assay: Inhibition of c-RAF up to 10 uM
[9] = Mean residence time in mouse at 1.4 mg/kg, iv; format: ADME, organism-based; design: dose 1.4 mg/kg, route intravenous; conditions: in vivo
[10] = Clearance in monkey at 0.5 mg/kg, iv and 2 mg/kg, po; format: ADME, organism-based, Macaca mulatta; conditions: rhesus monkey, in vivo
[11] = Plasma protein binding in human; format: ADME, cell-free; conditions: read-out: PPB (converted)
[12] = Oral bioavailability in rat at 4.2 mg/kg; format: ADME, organism-based; conditions: in vivo
[13] = molecular target: Calcium/calmodulin-dependent protein kinase type 1D (Homo sapiens) (UniProt Q8IU85); assay: Inhibition of CamK1delta up to 10 uM
[14] = molecular target: Angiopoietin-1 receptor (Homo sapiens) (UniProt Q02763); assay: Inhibition of Tie2 up to 10 uM
[15] = Mean residence time in rat at 4.2 mg/kg, po; format: ADME, organism-based; design: dose 4.2 mg/kg, route oral; conditions: in vivo
[16] = molecular target: Proto-oncogene tyrosine-protein kinase Src (Homo sapiens) (UniProt P12931); assay: Inhibition of c-SRC up to 10 uM
[17] = Mean residence time in dog at 0.6 mg/kg, iv; format: ADME, organism-based, Canis lupus familiaris; design: dose 0.6 mg/kg, route intravenous; conditions: in vivo
[18] = Clearance in rat at 1 mg/kg, iv and 4.2 mg/kg, po; format: ADME, organism-based; conditions: in vivo
[19] = molecular target: Epidermal growth factor receptor (Homo sapiens) (UniProt P00533); assay: Inhibition of EGFR up to 10 uM
[20] = Mean residence time in monkey at 0.5 mg/kg, iv; format: ADME, organism-based, Macaca mulatta; design: dose 0.5 mg/kg, route intravenous; conditions: rhesus monkey, in vivo
[21] = molecular target: Serine/threonine-protein kinase PLK3 (Homo sapiens) (UniProt Q9H4B4); assay: Inhibition of PLK3 up to 10 uM
[22] = molecular target: Tyrosine-protein kinase ABL1 (Homo sapiens) (UniProt P00519); assay: Inhibition of Abl1 up to 10 uM
[23] = molecular target: Glycogen synthase kinase-3 beta (Homo sapiens) (UniProt P49841); assay: Inhibition of GSK3-beta up to 10 uM
[24] = Oral bioavailability in mouse at […]; format: ADME, organism-based; conditions: in vivo
[25] = molecular target: [Pyruvate dehydrogenase (acetyl-transferring)] kinase isozyme 1, mitochondrial (Homo sapiens) (UniProt Q15118); assay: Inhibition of PDK1 up to 10 uM
[26] = molecular target: Platelet-derived growth factor receptor beta (Homo sapiens) (UniProt P09619); assay: Inhibition of PDGFRbeta up to 10 uM
[27] = Mean residence time in mouse at […], po; format: ADME, organism-based; design: dose 7.8 mg/kg, route oral; conditions: in vivo
[28] = molecular target: Cyclin-dependent kinase 2/cyclin A (Homo sapiens) (UniProt P24941+P20248+P78396); assay: Inhibition of CDK2/cyclin A up to 10 uM; format: protein-complex assay
[29] = Inhibition of CYP450 up to 30 uM; format: ADME
[30] = Oral bioavailability in dog at 2.3 mg/kg; format: ADME, organism-based, Canis lupus familiaris; conditions: in vivo
[31] = Mean residence time in dog at 2.3 mg/kg, po; format: ADME, organism-based, Canis lupus familiaris; design: dose 2.3 mg/kg, route oral; conditions: in vivo
[32] = Volume of distribution at steady state in mouse at 1.4 mg/kg, iv and […], po; format: ADME, organism-based; conditions: in vivo, read-out: Vdss
[33] = Clearance in mouse at 1.4 mg/kg, iv and […] mg/kg, po; format: ADME, organism-based; conditions: in vivo
[34] = Volume of distribution at steady state in monkey at 0.5 mg/kg, iv and 2 mg/kg, po; format: ADME, organism-based, Macaca mulatta; conditions: rhesus monkey, in vivo, read-out: Vdss
[35] = molecular target: Tyrosine-protein kinase SYK (Homo sapiens) (UniProt P43405); assay: Inhibition of Syk up to 10 uM
[36] = Oral bioavailability in monkey at 2 mg/kg; format: ADME, organism-based, Macaca mulatta; conditions: rhesus monkey, in vivo
[37] = molecular target: Tyrosine-protein kinase JAK3 (Homo sapiens) (UniProt P52333); assay: Inhibition of JAK3 up to 10 uM
[38] = molecular target: Insulin receptor (Homo sapiens) (UniProt P06213); assay: Inhibition of IR up to 10 uM
[39] = Clearance in dog at 0.6 mg/kg, iv and 2.3 mg/kg, po; format: ADME, organism-based, Canis lupus familiaris; conditions: in vivo
[40] = Volume of distribution at steady state in rat at 1 mg/kg, iv and 4.2 mg/kg, po; format: ADME, organism-based; conditions: in vivo, read-out: Vdss
[41] = molecular target: Mitogen-activated protein kinase 14 (Homo sapiens) (UniProt Q16539); assay: Inhibition of p38alpha up to 10 uM
[42] = Plasma protein binding in mouse; format: ADME, cell-free; conditions: read-out: PPB (converted)
[43] = molecular target: Protein kinase C alpha type (Homo sapiens) (UniProt P17252); assay: Inhibition of PKCalpha up to 10 uM
[44] = molecular target: RAC-gamma serine/threonine-protein kinase (Homo sapiens) (UniProt Q9Y243); assay: Inhibition of AKT3 up to 10 uM
RAC-gamma serine/threonine-protein kinase (Homo sapiens), sequence (Q9Y243 whole entry): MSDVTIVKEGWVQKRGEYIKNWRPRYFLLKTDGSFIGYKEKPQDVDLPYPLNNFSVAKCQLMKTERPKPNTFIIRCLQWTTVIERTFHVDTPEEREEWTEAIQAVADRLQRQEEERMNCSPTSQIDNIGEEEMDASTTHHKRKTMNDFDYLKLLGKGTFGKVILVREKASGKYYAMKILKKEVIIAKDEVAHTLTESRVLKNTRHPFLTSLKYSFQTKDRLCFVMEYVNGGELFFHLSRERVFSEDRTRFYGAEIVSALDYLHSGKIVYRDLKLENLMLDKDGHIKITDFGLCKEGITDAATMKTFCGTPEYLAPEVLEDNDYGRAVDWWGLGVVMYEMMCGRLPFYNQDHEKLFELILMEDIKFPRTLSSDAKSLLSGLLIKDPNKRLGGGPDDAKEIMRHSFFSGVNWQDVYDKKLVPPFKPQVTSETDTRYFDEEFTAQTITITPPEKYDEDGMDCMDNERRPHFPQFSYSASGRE

Dual specificity mitogen-activated protein kinase kinase 1, sequence (Q02750 whole entry): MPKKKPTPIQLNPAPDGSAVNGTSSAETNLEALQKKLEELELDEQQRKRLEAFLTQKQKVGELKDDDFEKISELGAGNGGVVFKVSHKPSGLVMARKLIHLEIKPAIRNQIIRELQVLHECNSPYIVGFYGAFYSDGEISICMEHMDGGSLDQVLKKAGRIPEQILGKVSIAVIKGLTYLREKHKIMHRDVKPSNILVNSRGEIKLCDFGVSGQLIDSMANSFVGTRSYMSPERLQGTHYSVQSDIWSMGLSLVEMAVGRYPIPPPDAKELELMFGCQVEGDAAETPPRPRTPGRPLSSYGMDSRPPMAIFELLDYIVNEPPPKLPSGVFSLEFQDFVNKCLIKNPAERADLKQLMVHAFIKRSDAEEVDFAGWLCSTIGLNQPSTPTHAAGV
Hepatocyte growth factor receptor (Homo sapiens), sequence (P08581 whole entry): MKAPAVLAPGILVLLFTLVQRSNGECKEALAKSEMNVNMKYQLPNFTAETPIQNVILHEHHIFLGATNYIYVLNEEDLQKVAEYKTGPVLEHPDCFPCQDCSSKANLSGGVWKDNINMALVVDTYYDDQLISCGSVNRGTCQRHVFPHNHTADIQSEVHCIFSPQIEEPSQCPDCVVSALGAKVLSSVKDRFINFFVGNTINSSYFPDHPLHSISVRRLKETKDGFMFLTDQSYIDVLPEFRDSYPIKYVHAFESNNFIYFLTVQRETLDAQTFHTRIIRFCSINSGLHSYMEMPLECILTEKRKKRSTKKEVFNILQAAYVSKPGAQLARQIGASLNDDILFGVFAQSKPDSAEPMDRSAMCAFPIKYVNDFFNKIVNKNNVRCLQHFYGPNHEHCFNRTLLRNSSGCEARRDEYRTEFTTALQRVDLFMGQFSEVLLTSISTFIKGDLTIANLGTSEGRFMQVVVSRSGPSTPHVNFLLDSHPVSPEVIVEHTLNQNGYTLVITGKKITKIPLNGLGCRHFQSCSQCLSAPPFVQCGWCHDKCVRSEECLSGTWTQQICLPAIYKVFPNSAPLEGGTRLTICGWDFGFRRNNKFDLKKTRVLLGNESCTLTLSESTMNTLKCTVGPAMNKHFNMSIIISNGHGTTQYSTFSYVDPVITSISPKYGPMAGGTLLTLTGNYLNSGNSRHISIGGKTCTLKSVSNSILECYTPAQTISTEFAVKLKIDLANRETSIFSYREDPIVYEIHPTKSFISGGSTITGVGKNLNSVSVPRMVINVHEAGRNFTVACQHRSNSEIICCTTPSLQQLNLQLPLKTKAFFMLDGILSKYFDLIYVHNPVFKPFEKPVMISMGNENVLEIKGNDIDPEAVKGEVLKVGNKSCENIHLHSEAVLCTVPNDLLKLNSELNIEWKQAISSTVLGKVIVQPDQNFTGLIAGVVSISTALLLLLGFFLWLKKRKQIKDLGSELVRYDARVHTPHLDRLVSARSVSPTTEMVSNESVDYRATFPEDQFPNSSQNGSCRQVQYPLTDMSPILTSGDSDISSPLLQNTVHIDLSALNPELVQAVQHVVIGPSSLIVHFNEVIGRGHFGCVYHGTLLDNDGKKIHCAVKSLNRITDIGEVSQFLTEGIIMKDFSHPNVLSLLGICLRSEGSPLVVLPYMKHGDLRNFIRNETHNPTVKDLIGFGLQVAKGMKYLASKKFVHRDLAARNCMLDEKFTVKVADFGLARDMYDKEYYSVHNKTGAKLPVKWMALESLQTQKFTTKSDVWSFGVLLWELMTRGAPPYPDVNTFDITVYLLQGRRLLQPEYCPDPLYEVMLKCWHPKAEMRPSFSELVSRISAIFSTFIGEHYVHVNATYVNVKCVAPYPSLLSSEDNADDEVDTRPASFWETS
Serine/threonine-protein kinase PLK3 (Homo sapiens), sequence (Q9H4B4 whole entry, looked up): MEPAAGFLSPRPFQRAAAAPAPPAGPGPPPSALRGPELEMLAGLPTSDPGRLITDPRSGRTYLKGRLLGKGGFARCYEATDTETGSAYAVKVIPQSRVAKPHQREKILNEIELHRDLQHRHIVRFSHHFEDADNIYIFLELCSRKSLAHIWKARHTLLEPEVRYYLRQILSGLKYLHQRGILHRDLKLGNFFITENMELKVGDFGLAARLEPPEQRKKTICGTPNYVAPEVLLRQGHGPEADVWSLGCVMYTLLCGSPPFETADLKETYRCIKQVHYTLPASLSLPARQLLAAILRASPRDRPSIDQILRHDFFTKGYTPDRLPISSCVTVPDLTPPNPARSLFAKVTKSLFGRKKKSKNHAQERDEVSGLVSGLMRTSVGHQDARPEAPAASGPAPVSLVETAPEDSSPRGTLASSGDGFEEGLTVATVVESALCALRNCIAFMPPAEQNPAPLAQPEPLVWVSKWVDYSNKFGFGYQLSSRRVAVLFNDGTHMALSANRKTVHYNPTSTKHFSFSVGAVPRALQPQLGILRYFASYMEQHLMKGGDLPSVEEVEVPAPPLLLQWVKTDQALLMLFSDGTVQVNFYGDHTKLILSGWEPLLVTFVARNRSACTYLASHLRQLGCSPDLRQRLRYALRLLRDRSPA
Proto-oncogene tyrosine-protein kinase Src (Homo sapiens), sequence (P12931 2-536 limits assumed): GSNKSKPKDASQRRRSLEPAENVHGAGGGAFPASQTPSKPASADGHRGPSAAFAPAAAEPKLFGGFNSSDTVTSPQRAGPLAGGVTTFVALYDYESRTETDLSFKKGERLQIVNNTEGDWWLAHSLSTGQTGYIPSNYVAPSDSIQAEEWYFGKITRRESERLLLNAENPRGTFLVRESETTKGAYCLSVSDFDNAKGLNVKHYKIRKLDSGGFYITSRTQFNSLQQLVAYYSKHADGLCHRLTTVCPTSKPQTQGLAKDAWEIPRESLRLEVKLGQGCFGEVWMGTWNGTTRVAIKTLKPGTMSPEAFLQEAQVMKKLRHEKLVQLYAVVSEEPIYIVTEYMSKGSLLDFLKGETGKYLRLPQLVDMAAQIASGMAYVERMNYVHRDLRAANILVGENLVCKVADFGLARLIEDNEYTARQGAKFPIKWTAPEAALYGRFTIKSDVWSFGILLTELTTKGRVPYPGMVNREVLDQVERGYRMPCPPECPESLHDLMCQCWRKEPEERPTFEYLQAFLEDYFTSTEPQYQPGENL
Glycogen synthase kinase-3 beta (Homo sapiens), sequence (P49841 whole entry, looked up): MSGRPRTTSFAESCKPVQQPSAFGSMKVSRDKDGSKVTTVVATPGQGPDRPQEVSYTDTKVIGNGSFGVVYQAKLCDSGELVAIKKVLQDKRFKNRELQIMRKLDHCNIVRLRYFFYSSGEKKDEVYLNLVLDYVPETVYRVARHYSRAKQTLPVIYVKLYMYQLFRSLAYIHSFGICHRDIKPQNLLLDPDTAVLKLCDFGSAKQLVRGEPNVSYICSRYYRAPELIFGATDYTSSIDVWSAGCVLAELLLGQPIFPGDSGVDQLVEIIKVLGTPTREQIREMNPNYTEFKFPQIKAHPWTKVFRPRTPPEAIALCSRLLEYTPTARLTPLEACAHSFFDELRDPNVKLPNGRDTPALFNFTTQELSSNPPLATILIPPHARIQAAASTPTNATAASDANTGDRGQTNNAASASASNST
Mitogen-activated protein kinase 14 (Homo sapiens), sequence (Q16539 whole entry): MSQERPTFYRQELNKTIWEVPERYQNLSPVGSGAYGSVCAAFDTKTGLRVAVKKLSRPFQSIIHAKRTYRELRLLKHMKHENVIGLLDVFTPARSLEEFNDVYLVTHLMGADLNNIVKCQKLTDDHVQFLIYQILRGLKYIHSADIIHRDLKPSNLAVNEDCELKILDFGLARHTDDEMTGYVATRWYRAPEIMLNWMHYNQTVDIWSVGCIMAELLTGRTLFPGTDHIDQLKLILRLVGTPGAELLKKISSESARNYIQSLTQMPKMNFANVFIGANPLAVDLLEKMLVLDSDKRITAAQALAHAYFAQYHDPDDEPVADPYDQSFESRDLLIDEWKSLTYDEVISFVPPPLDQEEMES

Cn1c(=O)c(F)c(Nc2ccc(I)cc2F)c2c(=O)n(OC[C@H](O)CO)cnc21
half-life [1]: 0.583 h
EC50 (COLO 205): 1 nM
EC50 (A-375): 3 nM
half-life [2]: 0.467 h
IC50 [3]: 3.1 nM

Cn1c(=O)c(F)c(Nc2ccc(I)cc2F)c2c(=O)n(C[C@@H](O)CO)cnc21 [TAK-733]
MRT [4]: 23.8 h
half-life [1]: 2.38 h
Vd [5]: 3.07 L/kg
MRT [6]: 2 h
EC50 (COLO 205): 2.1 nM
inhibition [7]: inactive
inhibition [8]: inactive
MRT [9]: 1.9 h
clearance [10]: 11.1 mL/min/kg
fraction unbound [11]: 0.03
bioavailability [12]: 71%
EC50 (A-375): 3.1 nM
inhibition [13]: inactive
inhibition [14]: inactive
MRT [15]: 11.5 h
half-life [2]: 2.25 h
inhibition [16]: inactive
MRT [17]: 8.9 h
clearance [18]: 13.7 mL/min/kg
inhibition [19]: inactive
MRT [20]: 5.8 h
inhibition [21]: inactive
inhibition [22]: inactive
inhibition [23]: inactive
bioavailability [24]: 67%
inhibition [25]: inactive
inhibition [26]: inactive
MRT [27]: 4.6 h
inhibition [28]: inactive
inhibition (INH) [29]: Not Active
bioavailability [30]: 76%
MRT [31]: 12.9 h
Vd [32]: 1.96 L/kg
clearance [33]: 17.2 mL/min/kg
Vd [34]: 3.75 L/kg
inhibition [35]: inactive
bioavailability [36]: > 38%
IC50 [3]: 3.2 nM
inhibition [37]: inactive
inhibition [38]: inactive
clearance [39]: 5.9 mL/min/kg
Vd [40]: 1.64 L/kg
inhibition [41]: inactive
fraction unbound [42]: 0.04
inhibition [43]: inactive
inhibition [44]: inactive

Cc1c(Nc2ccc(I)cc2F)c2c(=O)n(C[C@H](O)CO)cnc2n(C)c1=O
half-life [1]: > 3.33 h
EC50 (COLO 205): 13 nM
EC50 (A-375): 8 nM
half-life [2]: > 3.33 h

Cc1c(Nc2ccc(I)cc2F)c2c(=O)n(CCO)cnc2n(C)c1=O
half-life [1]: > 3.33 h
EC50 (COLO 205): 9 nM
EC50 (A-375): 18 nM
half-life [2]: > 3.33 h
IC50 [3]: 4 nM

Cn1c(=O)cc(Nc2ccc(I)cc2F)c2c(=O)n(CCCO)cnc21
half-life [1]: > 3.33 h
EC50 (COLO 205): 16 nM
EC50 (A-375): 23 nM
half-life [2]: 0.333 h
IC50 [3]: 4.9 nM

Cn1c(=O)c(F)c(Nc2ccc(I)cc2F)c2c(=O)n(CCO)cnc21
half-life [1]: 0.85 h
EC50 (COLO 205): 3.7 nM
EC50 (A-375): 6.3 nM
half-life [2]: 0.483 h

Cn1c(=O)c(F)c(Nc2ccc(I)cc2F)c2c(=O)n(C(CO)CO)cnc21
half-life [1]: 0.517 h
EC50 (COLO 205): 3.5 nM
EC50 (A-375): 8 nM
half-life [2]: 0.8 h
IC50 [3]: 3.3 nM

Cn1c(=O)c(F)c(Nc2ccc(I)cc2F)c2c(=O)n(C[C@H](O)CO)cnc21
half-life [1]: 3.05 h
EC50 (COLO 205): 2.6 nM
EC50 (A-375): 3 nM
half-life [2]: 1.52 h
IC50 [3]: 3.2 nM

Cn1cnc2c(c(Nc3ccc(I)cc3F)cc(=O)n2C)c1=O
half-life [1]: > 3.33 h
EC50 (COLO 205): 49 nM
EC50 (A-375): 86 nM
half-life [2]: 0.217 h

CN(C)CCn1cnc2c(c(Nc3ccc(I)cc3F)cc(=O)n2C)c1=O
half-life [1]: 0.483 h
half-life [2]: 0.133 h
IC50 [3]: 740 nM

Cn1c(=O)c(Cl)c(Nc2ccc(I)cc2F)c2c(=O)n(C[C@@H](O)CO)cnc21
half-life [1]: 0.367 h
EC50 (COLO 205): 10 nM
EC50 (A-375): 25 nM
half-life [2]: > 3.33 h
IC50 [3]: 5.9 nM

C#Cc1ccc(Nc2c(F)c(=O)n(C)c3ncn(C[C@@H](O)CO)c(=O)c23)c(F)c1
half-life [1]: 0.817 h
EC50 (COLO 205): 10 nM
EC50 (A-375): 11 nM
half-life [2]: 0.55 h
IC50 [3]: 4.8 nM

Cc1c(Nc2ccc(I)cc2F)c2c(=O)n(C[C@@H](O)CO)cnc2n(C)c1=O
half-life [1]: 1.95 h
EC50 (COLO 205): 7.9 nM
EC50 (A-375): 7.4 nM
half-life [2]: 1.97 h

Cn1c(=O)cc(Nc2ccc(I)cc2F)c2c(=O)n(C[C@@H](O)CO)cnc21
half-life [1]: 0.8 h
EC50 (COLO 205): 27 nM
EC50 (A-375): 26 nM
half-life [2]: 0.417 h

Cn1c(=O)cc(Nc2ccc(I)cc2F)c2c(=O)n(C[C@@H](O)CCO)cnc21
half-life [1]: > 3.33 h
EC50 (COLO 205): 142 nM
EC50 (A-375): 479 nM
half-life [2]: 0.667 h

Cn1c(=O)cc(Nc2ccc(I)cc2F)c2c(=O)n(C[C@H](O)CO)cnc21
half-life [1]: > 3.33 h
EC50 (COLO 205): 38 nM
EC50 (A-375): 40 nM
half-life [2]: > 3.33 h

Cn1c(=O)c(F)c(Nc2ccc(Br)cc2F)c2c(=O)n(C[C@@H](O)CO)cnc21
half-life [1]: 3.13 h
EC50 (COLO 205): 38 nM
EC50 (A-375): 50 nM
half-life [2]: 0.817 h

Cn1c(=O)cc(Nc2ccc(I)cc2F)c2c(=O)n(CCO)cnc21
half-life [1]: 0.617 h
EC50 (COLO 205): 38 nM
EC50 (A-375): 60 nM
half-life [2]: 0.183 h
